{"source": "patent US10407735B2", "about": "“Schlap-1 ncRNA and uses thereof” (THE REGENTS OF THE UNIVERSITY OF MICHIGAN, priority 2010, dated 2019)", "key": {"[1]": {"tested_on": "PCAT-14 expression in VCaP and LNCaP cells", "assay": "Androgen treatment (R1881), ncRNA expression by qPCR", "assay_type": "cell-based, human", "conditions": "5 nM R1881, androgen responsive VCaP and LNCaP cells", "text": "The benign immortalized prostate cell line RWPE as well as PC3, Du145, LNCaP, VCaP, 22Rv1, CWR22, C4-2B, NCI-660, MDA PCa 2b, WPMY-1, and LAPC-4 prostate cell lines were obtained from the American Type Culture Collection (Manassas, Va.). Benign non-immortalized prostate epithelial cells (PrEC) and prostate smooth muscle cells (PrSMC) were obtained from Lonza (Basel, Switzerland). Cell lines were maintained using standard media and conditions. For androgen treatment experiments, LNCaP and VCaP cells were grown in androgen depleted media lacking phenol red and supplemented with 10% charcoal-stripped serum and 1% penicillin-streptomycin. After 48 hours, cells were treated with 5 nM methyltrienolone (R1881, NEN Life Science Products) or an equivalent volume of ethanol. Cells were harvested for RNA at 6, 24, and 48 hours post-treatment. Prostate tissues were obtained from the radical prostatectomy series and Rapid Autopsy Program at the University of Michigan tissue core. These programs are part of the University of Michigan Prostate Cancer Specialized Program Of Research Excellence (S.P.O.R.E.). […]\nQuantitative Real-time PCR (qPCR) was performed using Power SYBR Green Mastermix (Applied Biosystems, Foster City, Calif.) on an Applied Biosystems 7900HT Real-Time PCR System. […] Fold changes were calculated relative to GAPDH and normalized to the median value of the benign samples."}, "[2]": {"tested_on": "LNCAP prostate cells"}, "[3]": {"tested_on": "Du145 prostate cancer cells"}, "[4]": {"tested_on": "RWPE benign prostate cells"}, "[5]": {"tested_on": "MCF7 breast cancer cells"}}, "data": [{"smiles": "C[C@]1(O)CC[C@H]2[C@@H]3CCC4=CC(=O)CCC4=C3C=C[C@@]21C", "note": "[R1881, methyltrienolone]", "values": [{"measurement": "PCAT-14 expression", "setting": "[1]", "value": "induced"}]}, {"smiles": "C[C@]1(c2nc3c(C(N)=O)cccc3[nH]2)CCCN1", "note": "[ABT-888]", "values": [{"measurement": "sensitivity to PARP1 inhibitor", "setting": "[2]", "value": "reduces sensitivity"}, {"measurement": "sensitivity to PARP1 inhibitor", "setting": "[3]", "value": "increases sensitivity"}, {"measurement": "sensitivity to PARP1 inhibitor", "setting": "[4]", "value": "increases sensitivity"}, {"measurement": "sensitivity to PARP1 inhibitor", "setting": "[5]", "value": "does not recapitulate this effect"}]}]}
